Measurements taken from patent US8183234B2, “Tricyclic guanidine derivatives as sodium-proton exchange inhibitors” (Piramal Life Sciences Limited, priority 2004, dated 2012).
Where a name gives a salt, the structure may show the parent alone.

Target: T1, NHE-1 (Homo sapiens, UniProt P19634)
T1 construct: NHE-1 isoform which is predominantly present in human platelets; endogenous in cells; host or cells: human platelets (platelet rich plasma from blood of healthy volunteers)
T1 sequence (P19634 whole entry, canonical isoform): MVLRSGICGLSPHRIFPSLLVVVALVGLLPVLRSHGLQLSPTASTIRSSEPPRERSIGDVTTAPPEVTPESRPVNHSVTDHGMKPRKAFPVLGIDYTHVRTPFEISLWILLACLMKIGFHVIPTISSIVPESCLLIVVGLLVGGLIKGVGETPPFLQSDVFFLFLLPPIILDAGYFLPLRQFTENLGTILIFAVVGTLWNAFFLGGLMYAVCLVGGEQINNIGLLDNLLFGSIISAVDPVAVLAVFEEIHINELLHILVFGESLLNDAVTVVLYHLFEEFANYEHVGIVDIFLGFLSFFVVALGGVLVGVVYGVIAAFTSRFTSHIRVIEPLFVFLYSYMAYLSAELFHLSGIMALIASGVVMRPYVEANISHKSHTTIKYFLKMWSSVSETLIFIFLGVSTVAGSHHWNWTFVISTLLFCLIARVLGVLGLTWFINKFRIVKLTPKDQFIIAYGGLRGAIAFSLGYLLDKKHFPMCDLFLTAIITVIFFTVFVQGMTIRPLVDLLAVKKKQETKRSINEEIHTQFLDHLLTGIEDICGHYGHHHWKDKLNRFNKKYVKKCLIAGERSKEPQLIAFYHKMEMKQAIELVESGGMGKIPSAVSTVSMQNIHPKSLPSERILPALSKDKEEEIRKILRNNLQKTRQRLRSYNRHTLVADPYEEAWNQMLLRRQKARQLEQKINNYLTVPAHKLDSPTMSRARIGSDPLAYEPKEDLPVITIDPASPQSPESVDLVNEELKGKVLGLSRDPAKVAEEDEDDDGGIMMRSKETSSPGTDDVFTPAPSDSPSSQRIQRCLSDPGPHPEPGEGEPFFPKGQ
Assay: Primary screening assay in human platelets (acidified human platelet swelling assay)
Assay type: cell-based
Conditions: concentration required to inhibit 50% of NHE-1 activity in isolated human platelets; mean of three readings, PRP from three donors
Protocol: Experiments on inhibition of NHE in human platelets are based on those published in (Cardiovasc. Res. 29: 260-268, (1995), J. Med. Chem. 41, 3736-3747, (1998)) Blood (150 mL) collected in a siliconized glass bottle from healthy volunteers was treated with aqueous acid citrate dextrose (ACD) solution (25 mL) [composition: citric acid (38 mM/L), glucose (136 mM/L) and trisodium citrate (75 mM/L)] and immediately centrifuged at 200 g for 20 min. The platelet rich plasma (PRP) was separated and a platelet count carried out using a Beckman Coulter A^c T® cell counter. The cell count was adjusted to 3×10^8 platelets/mL using platelet free plasma.
Activation of Na^+/H^+ exchanger by intracellular acidification: 150 μL of PRP was added to 750 μL of propionate buffer [composition: KCl (5 mM/L), CaCl2 (1 mM/L), MgCl2 (1 mM/L), glucose (10 mM/L), HEPES (20 mM/L), sodium propionate (140 mM/L)] of pH 6.6, in a cuvette. Optical density was recorded at 630 nm using a Shimadzu spectrophotometer (UV 1601). The micromolar concentrations of a few representative compounds required to inhibit 50% of NHE-1 activity (IC50), in isolated human platelets (acidified human platelet swelling assay) is shown in Table 2. IC50 values are the mean of three experimental readings using PRP isolated from the blood of three different donors.
Cc1cc2c(cc1C(=O)N=C(N)N)S(=O)(=O)Cc1ccccc1O2 [Example 27, N-(7-Methyl-10,10-dioxo-10,11-dihydro-5-oxa-10lambda*6*-thia-dibenzo[a,d]cycloheptene-8-carbonyl)-guanidine, methane sulfonic acid salt] showed an IC50 of 100 nM.
In the case of Cc1cc(C(=O)N=C(N)N)cc2c1Oc1c(cccc1C(C)C)CS2(=O)=O [Example 31, N-(4-Isopropyl-6-methyl-10,10-dioxo-10,11-dihydro-5-oxa-10lambda*6*-thia-dibenzo[a,d]cycloheptene-8-carbonyl)-guanidine, methane sulfonic acid salt], the IC50 is reported as 200 nM.
For Cc1cc(C(=O)N=C(N)N)cc2c1Oc1c(Cl)cc(N)cc1CS2(=O)=O [Example 35, N-(2-Amino-4-chloro-6-methyl-10,10-dioxo-10,11-dihydro-5-oxa-10lambda*6*-thia-dibenzo[a,d]cycloheptene-8-carbonyl)-guanidine, methane sulfonic acid salt], the IC50 was 20 nM.
Compound NC(N)=NC(=O)c1cc(Cl)c2c(c1)S(=O)(=O)Cc1cccc(Cl)c1O2 [Example 45, 4,6-Dichloro-10,10-dioxo-10,11-dihydro-5-oxa-10lambda*6*-thia-dibenzo[a,d]cycloheptene-8-carbonylguanidine, methane sulfonic acid salt] has an IC50 of 70 nM.
Cc1cc(N)cc2c1Oc1c(Cl)cc(C(=O)N=C(N)N)cc1S(=O)(=O)C2 [Example 48, N-(2-Amino-6-chloro-4-methyl-10,10-dioxo-10,11-dihydro-5-oxa-10lambda*6*-thia-dibenzo[a,d]cycloheptene-8-carbonyl)-guanidine, methane sulfonic acid salt] gave an IC50 of 40 nM.
In the case of Cc1cc(C(=O)N=C(N)N)cc2c1Oc1c(Cl)cc(S(=O)(=O)NCc3cccnc3)cc1CS2(=O)=O [Example 52, 4-Chloro-8-guanidinocarbonyl-6-methyl-10,10-dioxo-10,11-dihydro-5-oxa-10lambda*6*-thia-dibenzo[a,d]cycloheptene-2-sulfonic acid (pyridin-3-ylmethyl)-amide dimesylate], the IC50 is reported as 80 nM.
With Cc1cc(C(=O)N=C(N)N)cc2c1Oc1c(Cl)cc(N3CCN(C4CC4)CC3=O)cc1CS2(=O)=O [Example 58, N-[4-Chloro-2-(4-cyclopropyl-2-oxo-piperazin-1-yl)-6-methyl-10,10-dioxo-10,11-dihydro-5-oxa-10lambda*6*-thia-dibenzo[a,d]cycloheptene-8-carbonyl]-guanidine dimesylate] the IC50 was 87 nM.
For Cc1cc(C(=O)N=C(N)N)cc2c1Oc1c(Cl)cc(NCCn3ccnc3)cc1CS2(=O)=O [Example 64, N-[4-Chloro-2-(2-imidazol-1-yl-ethylamino)-6-methyl-10,10-dioxo-10,11-dihydro-5-oxa-10lambda*6*-thia-dibenzo[a,d]cycloheptene-8-carbonyl]-guanidine dimesylate], the IC50 was 28 nM.
Compound CCN(CCN1CCCC1)c1cc(Cl)c2c(c1)CS(=O)(=O)c1cc(C(=O)N=C(N)N)cc(C)c1O2 [Example 73, N-{4-Chloro-2-[ethyl-(2-pyrrolidin-1-yl-ethyl)-amino]-6-methyl-10,10-dioxo-10,11-dihydro-5-oxa-10lambda*6*-thia-dibenzo[a,d]cycloheptene-8-carbonyl}-guanidine dimesylate] has an IC50 of 32 nM.
Cc1cc(C(=O)N=C(N)N)cc2c1Oc1c(Cl)cc(N3CCN(Cc4ccccc4)CC3)cc1CS2(=O)=O [Example 118, N-[2-(4-Benzyl-piperazin-1-yl)-4-chloro-6-methyl-10,10-dioxo-10,11-dihydro-5-oxa-10lambda*6*-thia-dibenzo[a,d]cycloheptene-8-carbonyl]-guanidine dimesylate] gave an IC50 of 100 nM.
With Cc1cc2c(cc1C(=O)N=C(N)N)S(=O)(=O)Cc1ccccc1N2 [Example 183, N-(7-Methyl-10,10-dioxo-10,11-dihydro-5H-10lambda*6*-thia-5-aza-dibenzo[a.d]cycloheptene-8-carbonyl)-guanidine, methane sulfonic acid salt] the IC50 was 100 nM.
For Cc1cc(C(=O)N=C(N)N)cc2c1N(C)c1c(Cl)cccc1C(C)S2(=O)=O (centres unmarked) [Example 194, N-(4-Chloro-5,6,11-trimethyl-10,10-dioxo-10,11-dihydro-5H-10lambda*6*-thia-5-aza-dibenzo[a.d]cycloheptene-8-carbonyl)-guanidine, methane sulfonic acid salt], the IC50 was 200 nM.
Work on Cc1cc(C(=O)N=C(N)N)cc2c1Oc1c(Cl)cc(CN)cc1CS2(=O)=O [Example 198, N-(2-Aminomethyl-4-chloro-6-methyl-10,10-dioxo-10,11-dihydro-5-oxa-10lambda*6*-thia-dibenzo[a.d]cycloheptene-8-carbonyl)-guanidine trimesylate] yielded an IC50 of 30 nM.

System: not given
Assay: not given
Conditions: not given
Work on CS(=O)(=O)O.CS(=O)(=O)O.Cc1cc(C(=O)NC(=N)N)cc2c1Oc1c(N)cccc1CS2(=O)=O [Example 159, N-[4-Amino-6-methyl-10,10-dioxo-10,11-dihydro-5-oxa-10lambda*6*-thia-dibenzo[a,d]cycloheptene-8-carbonyl)-guanidine dimesylate] yielded a melting point of 255 to 257 °C.
For CS(=O)(=O)O.CS(=O)(=O)O.CS(=O)(=O)O.Cc1ccc(CNc2cc(Cl)c3c(c2)CS(=O)(=O)c2cc(C(=O)NC(=N)N)cc(C)c2O3)s1 [Example 164, N-{4-Chloro-6-methyl-2-[(5-methyl-thiophen-2-ylmethyl)-amino]-10,10-dioxo-10,11-dihydro-5-oxa-10lambda*6*-thia-dibenzo[a,d]cycloheptene-8-carbonyl}-guanidine trimesylate], the melting point was 230 to 232 °C.
CS(=O)(=O)O.CS(=O)(=O)O.Cc1cc(C(=O)NC(=N)N)cc2c1Oc1c(Cl)cc(NCc3cccnc3)cc1CS2(=O)=O [Example 165, N-{4-Chloro-6-methyl-10,10-dioxo-2-[(pyridin-3-ylmethyl)-amino]-10,11-dihydro-5-oxa-10lambda*6*-thia-dibenzo[a,d]cycloheptene-8-carbonyl}-guanidine dimesylate] gave a melting point of 238 °C.
CS(=O)(=O)O.CS(=O)(=O)O.Cc1cc(C(=O)NC(=N)N)cc2c1Oc1c(Cl)cc(N3CCN(CCO)CC3)cc1CS2(=O)=O [Example 197, N-{4-Chloro-2-[4-(2-hydroxy-ethyl)-piperazin-1-yl]-6-methyl-10,10-dioxo-10,11-dihydro-5-oxa-10lambda*6*-thia-dibenzo[a,d]cycloheptene-8-carbonyl}-guanidine dimesylate] gave a melting point of 185 to 187 °C.
